Measurements taken from patent US20200267980A1, “Herbicidally Active Pyridyl-/Pyrimidyl-Pyrimidine Derivatives” (Syngenta Participations AG, priority 2017, published 2020).

Legend:
Assay type in all cases: in vivo
[1] = system: Echinochloa crus-galli (ECHCG); experiment: Post-emergence herbicidal activity, glasshouse pot test; set-up: key: 5=total damage to plant; 0=no damage to plant; conditions: 1000 g/ha, post-emergence spray after 8 days cultivation, evaluated after 13 days, damage score 0-5
Experimental: (§1) Seeds of a variety of test species were sown in standard soil in pots: Triticum aestivium (TRZAW), Avena fatua (AVEFA), Alopecurus myosuroides (ALOMY), Echinochloa crus-galli (ECHCG), Lolium perenne (LOLPE), and Setaria faberi (SETFA). After 8 days cultivation (post-emergence) under controlled conditions in a glasshouse (at 24/16° C., day/night; 14 hours light; 65% humidity), the plants were sprayed with an aqueous spray solution derived from the formulation of the technical active ingredient in acetone/water (50:50) solution containing 0.5% Tween 20 (polyoxyethelyene sorbitan monolaurate, CAS RN 9005-64-5). The test plants were then grown in a glasshouse under controlled conditions (at 24/16° C., day/night; 14 hours light; 65% humidity) and watered twice daily. After 13 days, the test was evaluated (5=total damage to plant; 0=no damage to plant).

Setaria faberi (SETFA) [2] = experiment: as above; set-up: key: 5=total damage to plant; 0=no damage to plant; conditions: 1000 g/ha, post-emergence spray after 8 days cultivation, evaluated after 13 days, damage score 0-5
Experimental: as §1

[3] = system: Triticum aestivium (TRZAW); experiment: as above; set-up: key: 5=total damage to plant; 0=no damage to plant; conditions: 1000 g/ha, post-emergence spray after 8 days cultivation, evaluated after 13 days, damage score 0-5
Experimental: as §1

Lolium perenne (LOLPE) [4] = experiment: as above; set-up: key: 5=total damage to plant; 0=no damage to plant; conditions: 1000 g/ha, post-emergence spray after 8 days cultivation, evaluated after 13 days, damage score 0-5
Experimental: as §1

[5] = system: Alopecurus myosuroides (ALOMY); experiment: as above; set-up: key: 5=total damage to plant; 0=no damage to plant; conditions: 1000 g/ha, post-emergence spray after 8 days cultivation, evaluated after 13 days, damage score 0-5
Experimental: as §1

Avena fatua (AVEFA) [6] = experiment: as above; conditions: 1000 g/ha, post-emergence spray after 8 days cultivation, evaluated after 13 days, damage score 0-5
Experimental: as §1

[7] = system: Echinochloa crus-galli (ECHCG); experiment: Pre-emergence herbicidal activity, glasshouse pot test; set-up: key: 5=total damage to plant; 0=no damage to plant; conditions: 1000 g/ha, pre-emergence spray, evaluated after 13 days, damage score 0-5
Experimental: as §1, with “After” for “After 8 days”, “for one day (pre-emergence)” for “(post-emergence)”

Setaria faberi (SETFA) [8] = experiment: as above; set-up: key: 5=total damage to plant; 0=no damage to plant; conditions: 1000 g/ha, pre-emergence spray, evaluated after 13 days, damage score 0-5
Experimental: as §1, with “After” for “After 8 days”, “for one day (pre-emergence)” for “(post-emergence)”

[9] = system: Triticum aestivium (TRZAW); experiment: as above; set-up: key: 5=total damage to plant; 0=no damage to plant; conditions: 1000 g/ha, pre-emergence spray, evaluated after 13 days, damage score 0-5
Experimental: as §1, with “After” for “After 8 days”, “for one day (pre-emergence)” for “(post-emergence)”

Avena fatua (AVEFA) [10] = experiment: as above; set-up: key: 5=total damage to plant; 0=no damage to plant; conditions: 1000 g/ha, pre-emergence spray, evaluated after 13 days, damage score 0-5
Experimental: as §1, with “After” for “After 8 days”, “for one day (pre-emergence)” for “(post-emergence)”

Lolium perenne (LOLPE) [11] = experiment: as above; set-up: key: 5=total damage to plant; 0=no damage to plant; conditions: 1000 g/ha, pre-emergence spray, evaluated after 13 days, damage score 0-5
Experimental: as §1, with “After” for “After 8 days”, “for one day (pre-emergence)” for “(post-emergence)”

[12] = system: Alopecurus myosuroides (ALOMY); experiment: as above; set-up: key: 5=total damage to plant; 0=no damage to plant; conditions: 1000 g/ha, pre-emergence spray, evaluated after 13 days, damage score 0-5
Experimental: as §1, with “After” for “After 8 days”, “for one day (pre-emergence)” for “(post-emergence)”

SMILES | Control of weed species after post-emergence application, ECHCG [1] | Control of weed species after post-emergence application, SETFA (Setaria faberi (SETFA) [2]) | Control of weed species after post-emergence application, TRAZW [3] | Control of weed species after post-emergence application, LOLPE (Lolium perenne (LOLPE) [4]) | Control of weed species after post-emergence application, ALOMY [5] | Control of weed species after post-emergence application, AVEFA (Avena fatua (AVEFA) [6]) | Control of weed species after pre-emergence application, ECHCG [7] | Control of weed species after pre-emergence application, SETFA (Setaria faberi (SETFA) [8]) | Control of weed species after pre-emergence application, TRAZW [9] | Control of weed species after pre-emergence application, AVEFA (Avena fatua (AVEFA) [10]) | Control of weed species after pre-emergence application, LOLPE (Lolium perenne (LOLPE) [11]) | Control of weed species after pre-emergence application, ALOMY [12]
CC(C)C(=O)N(C)c1cnc(-c2cncc(F)c2)nc1C(F)(F)F [Compound F20, N-[2-(5-fluoro-3-pyridyl)-4-(trifluoromethyl)pyrimidin-5-yl]-N,2-dimethyl-propanamide] | 5 | 5 | 2 | 3 | 1 | 4 | 4 | 5 | 1 | 3 | 1 | 0
CC(C)C(=O)Nc1cnc(-c2cncnc2)nc1C(F)(F)F [Compound F32] | 4 | 4 | 1 | 2 | 1 | 3 | 4 | 4 | 1 | 1 | 1 | 1
CCC(=O)N(C(=O)CC)c1cnc(-c2cncc(F)c2)nc1C(F)(F)F [Compound F7] | 5 | 4 | 1 | 2 | 1 | 2 | 2 | 2 | 0 | 1 | 1 | 0
O=C(CCC1CCCC1)Nc1cnc(-c2cncnc2)nc1C(F)(F)F [Compound F17] | 4 | 4 | 1 | 1 | 0 | 2 | 3 | 4 | 0 | 1 | 0 | 0
O=C1CCCCN1c1cnc(-c2cncc(F)c2)nc1C(F)(F)F [Compound F29] | 4 | 5 | 0 | 1 | 0 | 3 | 2 | 3 | 1 | 0 | 1 | 1
O=C(CCC1CCCC1)Nc1cnc(-c2cncc(F)c2)nc1C(F)(F)F [Compound F19] | 4 | 4 | 0 | 1 | 0 | 2 | 4 | 4 | 1 | 1 | 1 | 0
O=C(Nc1cnc(-c2cncc(F)c2)nc1C(F)(F)F)c1ccccc1 [Compound F10] | 5 | 5 | 1 | 1 | 0 | 2 | 4 | 4 | 0 | 1 | 1 | 0
O=C(CC(F)(F)F)Nc1cnc(-c2cncc(F)c2)nc1C(F)(F)F [Compound F23] | 5 | 5 | 0 | 2 | 0 | 3 | 3 | 5 | 0 | 0 | 0 | 0
O=C(Nc1cnc(-c2cncc(F)c2)nc1C(F)(F)F)C(Cl)(Cl)Cl [Compound F5] | 4 | 5 | 1 | 3 | 2 | 2 | 3 | 5 | 0 | 1 | 0 | 0
O=C(Nc1cnc(-c2cncc(F)c2)nc1C(F)(F)F)c1cccs1 [Compound F9] | 4 | 4 | 1 | 2 | 0 | 2 | 2 | 4 | 0 | 1 | 1 | 0
COCCC(=O)Nc1cnc(-c2cncnc2)nc1C(F)(F)F [Compound F16] | 5 | 5 | 1 | 2 | 1 | 3 | 4 | 5 | 0 | 1 | 1 | 0
